Source: patent US20130209441A1, “PROCESS FOR INHIBITION OF CEREBRAL DAMAGE ASSOCIATED WITH ISCHEMIA BY ANTHOCYANINS AND ANTHOCYANIDINS” (priority 2012, published 2013)

Experiments:
[1] = system: superoxide; test: In situ detection of brain superoxide by dihydroethidium (DHE) fluorescence in pMCAO mice; assay type: in vivo, mouse; conditions: pretreatment 2 mg/kg orally; 24 h after pMCAO; vs vehicle, p<0.05
Description: Measurement of superoxide is performed in situ by superoxide-selective oxidative fluorescent dye dihydroethidium cell membranes (DHE) as previously described in [3]. DHE is freely permeable across cell membranes and fluoresces red when oxidized to ethidium bromide by superoxide. Unfixed frozen brain sections (30 um) are placed on glass slides and submerged in 10^−6 mol/L DHE (Sigma) in phosphate buffered saline (PBS) buffer, pH 7.4 and incubated at 37° C. for 30 min in a dark humidified container. Fluorescence in ischemic regions of brain sections is then detected by a Zeiss 210 confocal microscope with a 590-nn long-pass filter. The intensity of the fluorescence is analyzed and quantified by densitometry (NIH Image software, version 1.37). The study included three groups (sham-operated, pMCAO with vehicle-treated, and pMCAO with 2 mg/kg of CG-treated mice; (n=4). Four brain sections of each mouse and five fields in each section are measured to calculate mean levels of the brain superoxide. Mitochondria are prepared from adult mouse brains (6-8 weeks old) by using the Percoll gradient method, as previously described. After decapitation, the brain is quickly removed and washed in the isolation buffer (300 mM sucrose, 0.1 mM EGTA, 10 mM HEPES, pH 7.4). The brain is homogenized in 15 ml of buffer by using hand-held glass Potter-Elvehjem homogenizer with PTFE pestle. […]

[2] = system: cyt c release from isolated mitochondria; test: Cyt c release from isolated mouse brain mitochondria (immunoblot of supernatant); assay type: biochemical; conditions: for cyt c release in response to Ca2+: Ca2+ 100 μM stimulation
Description: Measurement of superoxide is performed in situ by superoxide-selective oxidative fluorescent dye dihydroethidium cell membranes (DHE) as previously described in [3]. DHE is freely permeable across cell membranes and fluoresces red when oxidized to ethidium bromide by superoxide. Unfixed frozen brain sections (30 um) are placed on glass slides and submerged in 10^−6 mol/L DHE (Sigma) in phosphate buffered saline (PBS) buffer, pH 7.4 and incubated at 37° C. for 30 min in a dark humidified container. Fluorescence in ischemic regions of brain sections is then detected by a Zeiss 210 confocal microscope with a 590-nn long-pass filter. The intensity of the fluorescence is analyzed and quantified by densitometry (NIH Image software, version 1.37). The study included three groups (sham-operated, pMCAO with vehicle-treated, and pMCAO with 2 mg/kg of CG-treated mice; (n=4). Four brain sections of each mouse and five fields in each section are measured to calculate mean levels of the brain superoxide. Mitochondria are prepared from adult mouse brains (6-8 weeks old) by using the Percoll gradient method, as previously described. After decapitation, the brain is quickly removed and washed in the isolation buffer (300 mM sucrose, 0.1 mM EGTA, 10 mM HEPES, pH 7.4). The brain is homogenized in 15 ml of buffer by using hand-held glass Potter-Elvehjem homogenizer with PTFE pestle. After 5 strokes, the cell debris and nuclei are centrifuged at 1330×g for 5 min. The supernatant is further centrifuged at 21,200×g for 10 min. Mitochondrial fraction is resuspended in 15% Percoll solution diluted in the isolation buffer and layered on top of a discontinuous Percoll gradient of 25/40%. The density gradient is centrifuged at 30,700×g for 10 min and mitochondria are collected from the interface between 25 and 40% Percoll solution, transferred to a new tube, and washed in 10 mL of isolation buffer by centrifugation at 6700×g for 10 min. The resulting pellet is suspended in the isolation buffer without EGTA and further diluted to 2 mg/mL in assay buffer for the cyt c release assay. 50 μL of mitochondria are then mixed with buffer or reagents in a final reaction volume of […].
The assay buffer contains 125 mM KCI, 2 mM KH2PO4, 4 mM MgCl2 at pH 7.4, and 3 mM ATP, 0.8 mM ADP, 5 mM succinate and 2 μM rotenone for respiration. Mitochondrial suspensions diluted in the assay buffer are exposed to Ca^2+ (100 μM), S-nitrosoglutathione (GS—NO, 50 μM for nitric oxide generation) or H2O2 (50 μM for oxidative stress) in 10 min and centrifuged sat 12,000×g in 5 min. The supernatant is collected and 15 μL of aliquots are run on a SDS-PAGE gel to detect the release of cyt c by the immunoblotting assay. […]

[3] = system: pMCAO mice; test: Mouse model of permanent middle cerebral artery occlusion (pMCAO): infarct volume (TTC staining) and 18-point neurological score at 24 h; assay type: in vivo; conditions: 24 h after pMCAO, vs vehicle
Description: C3G is isolated from Prunus cerasus fruits as previously described is dissolved in 0.9% normal saline (NS) and is administered by oral gavage to mice at 1-h before induction of pMCAO. Mice are randomly distributed into […] and treated with vehicle (n=10), or 1 mg/kg (n=8), 2 mg/kg (n=10), and 5 mg/kg (n=9) of C3G. The doses chosen in the present study are based on previous reports. Animals are euthanized at 24 h following pMCAO and infarct volumes are determined.
To evaluate the effect of a delayed treatment at 3 h following pMCAO, mice are randomly assigned to vehicle (n=11), or 2 mg/kg of C3G administered orally at 3 h after pMCAO supplemented by two additional doses of 2 mg/kg of C3G 3 h apart. […] Animals are euthanized at 24 h following pMCAO and infarct volumes and neurological outcomes are determined.
Neurological assessment of experimental mice is performed according to an 18 point-based scale at 1 h before induction of pMCAO and at 24 h following surgery. Brains are immediately removed following neurological assessment, rinsed in cold saline solution, cut into 1-mm-thick coronal sections, and processed for 2% 2,3,5-triphenylterazolium chloride (TTC) staining as previously described. The infarct volumes from individual sections are then summed to determine the total brain infarct volume and adjusted for edema (corrected infarct volume).
All data are expressed as mean values±S.E.M. The degree of statistical significance between groups is determined on the basis of Student t-test, One-way ANOVA test, followed by post hoc Fisher LSD test, and Kruskal-Wallis rank test. SigmaStat 3.0 software (SYSTAT Software Inc., Point Richmond, Calif.) is used to carry out the analysis. Statistical significance is defined at p<0.05.

[4] = system: AIF release from isolated mitochondria; test: AIF release from isolated mouse brain mitochondria; assay type: biochemical; conditions: compound 100 μM
Description: Mitochondria are prepared from mouse brains using flowing differential centrifugation procedures at 4° C. described previously. Homogenation buffer (50 μl) containing the prepared mitochondrial pellet is incubated with 25 μl of C3G at the desired concentration and the buffer added to achieve the final volume of 100 μl. The AIF release is then assessed in the presence of 100 μM of C3G in response to stimulation by GS-NO (50 μM) and H2O2 (50 μM).

Structure (SMILES): OC[C@H]1O[C@@H](Oc2cc3c(O)cc(O)cc3[o+]c2-c2ccc(O)c(O)c2)[C@H](O)[C@@H](O)[C@@H]1O [C3G, cyanidin-3-O-glucoside]
- fluorescent density of brain superoxide in situ [1]: significantly suppressed
- cyt c release in response to Ca2+ ([2]; compound 1 μM): no effect
- cyt c release in response to Ca2+ ([2]; compound 100 μM): did not prevent
- cyt c release in response to GS-NO ([2]; GS-NO 50 μM oxidative stress, compound 100 μM): did not prevent
- cyt c release in response to H2O2 ([2]; H2O2 50 μM oxidative stress, compound 100 μM): did not prevent
- reduction of infarct volume ([3]; 2 mg/kg oral gavage 1 h before pMCAO): 27%
- reduction of infarct volume ([3]; 5 mg/kg oral gavage 1 h before pMCAO): 30%
- reduction in infarct size ([3]; delayed treatment: 2 mg/kg orally at 3 h after pMCAO plus two additional 2 mg/kg doses 3 h apart): 25%
- neurological performance (18-point score) ([3]; pretreatment 2 mg/kg orally): statistically significant better neurological performance
- neurological performance (18-point score) ([3]; pretreatment 5 mg/kg orally): statistically significant better neurological performance
- neurological functional performance (18-point score) ([3]; treatment 2 mg/kg orally at 3 h after onset of ischemia plus two additional doses): significantly better
- AIF release in response to GS-NO ([4]; GS-NO 50 μM stimulation): partially prevented
- AIF release in response to H2O2 ([4]; H2O2 50 μM stimulation): partially prevented
